In publication PMC7562719, “Discovery of a CNS penetrant small molecule SMN2 splicing modulator with improved tolerability for spinal muscular atrophy” (Scientific Reports, 2020):

Assays:
Type in all cases: cell-based, human
FL-SMN2 mRNA = experiment: qPCR of FL-SMN2 transcripts in SMA type II fibroblasts (GM03813); conditions: 24 h, 50% total FL-SMN2 mRNA increase, normalized to GAPDH, 95% CI in brackets
Method: (§1) GM03813 fibroblasts, GM24468-derived MNs, NRK-49F, MDCK, CV-1, or NCMDF cells were plated at a density of 0.5 or 1.5 × 10^4, 4 × 10^4, 5 × 10^3, 5 × 10^3, 8 × 10^3, or 6 × 10^3 cells/well on 96-well plates, respectively. After approximately 6 h, the medium was added with the same volume of culture medium containing each compound at the concentration of 0.06, 0.2, 0.6, 0.2, and 6 µM. The final concentration of DMSO was adjusted to 0.1% in culture condition.
(§2) All cells were treated with above compounds for 24 h and washed once with Dulbecco’s Phosphate-Buffered Saline without Ca and Mg [D-PBS (–)] (Wako or Nakarai Tesque). In case of using GM03813 or GM24468-derived MNs, cell lysis and reverse transcription were carried out using SuperPrep Cell Lysis & RT Kit for qPCR in accordance with manufacturer’s recommendations (Toyobo, Japan). qPCR was performed using THUNDERBIRD Probe qPCR Mix (Toyobo). The final concentrations of primers and probes were adjusted to 0.4 µM and 0.15 µM, respectively (Supplementary Table 1). Cycle conditions were as follows; 95 °C for 1 min; followed by 40 cycles of denaturation at 95 °C for 15 s; annealing and elongation at 60 °C for 1 min in the ViiA7 RT-PCR system (Thermo Fisher Scientific). The copy numbers of each target were normalized to those of GAPDH.

GALC mRNA = experiment: qPCR of GALC transcripts in GM03813 fibroblasts; conditions: for Selectivity GALC /FL-SMN2: EC50 of GALC divided by EC1.5× of FL-SMN2; for EC50: Homo sapiens, Fibroblast, GM03813 fibroblasts, 24 h, 50% total GALC mRNA reduction, 95% CI in brackets
Method: as §1, §2

GALC = GALC enzymatic assay from Hs683 cells; conditions: 3 days
Method: GALC enzymatic activities were quantified as reported by Wiederschain et al.[47]. Hs683 cells were seeded at 1.5 × 10^5 cells/well in 6-well plate. Cells were treated with TEC-1 (0.1, 0.3, or 1 µM) or SMN-C3 (0.03, 0.1, 0.3, or 1 µM) for 3 days. Hs683 cells were washed with D-PBS (–), collected with ultra-pure water using a cell scraper, and homogenized with homogenizers (NS-4, NS310E, Micotechnition, Japan) for 10 s. Cell lysates were centrifuged at 600 × g for 10 min at 4 °C, followed by collection of supernatants. The concentration of protein of each sample was quantified with a BCA kit. The samples were adjusted to 1 µg protein/µL (total volume 20 µL) with ultra-pure water and then 80 µL of reaction buffer (0.25% taurocholate, 0.05% oleic acid and 0.1 mol/L citrate, pH 4.4) containing 80 µM 6-Hexadecanoylamino-4-methylumbelliferone b-D-galactopyranoside (HMU-Gal, Carbosynth, UK) was added. Stop buffer (0.2 mol/L Glycine solution with NaOH, pH 10.6) was mixed with an equal amount of ethanol. The mixture was reacted at 37 °C for 20 h. […] Signals were detected by reading the fluorescence emission at 450 nm with plate reader (Enspire, PerkinElmer) excited by 385 nm. The fluorescence intensity was corrected by the value of standard substrate of 6-hexadecanoylamino-4-methylumbelliferone (Cat. No. EH10520, Carbosynth).

Hs683 cells = experiment: psychosine/sphingosine ratio in Hs683 cells by LC/MS/MS; conditions: 3000 nM, 12 days, normalized by sphingosine
Method: Hs683 cells were seeded at 1.5 × 10^5 cells/well in 6-well plates and were treated with TEC-1 or SMN-C3 for 12 days. The sample was extracted with EtOH and dried under nitrogen spray. Pellet was completely re-dissolved in EtOH using vortex and ultrasonication. The resulting sample was centrifuged at 15,000 rpm for 5 min at 4 °C. Analytes were separated from the supernatant and quantified by LC/MS/MS as reported by Boutin et al.[48].

ChAT protein = ChAT protein in iPSC-derived motor neurons (western blot); conditions: iPSC-derived motor neurons (GM24468), 3 days
Method: GM03813 fibroblasts and GM24468-derived MNs were seeded at 1.5 × 10^4 and 4 × 10^4 cells/well in 96-well plates and were treated with TEC-1 or SMN-C3 for 72 h at the concentration of 0.01, 0.03, 0.1, 0.3, 1, or 3 µM. After 72 h exposure of compound, GM24468 derived MNs and GM03813 fibroblasts were washed once with D-PBS (-), lysed with RIPA buffer (Wako) containing cOmplete (Sigma-Aldrich) and PhosSTOP (Sigma-Aldrich). The lysates were spun at 15,000 rpm for 15 min at 4 °C, and the supernatants were collected. The protein concentration was quantified with BCA kit (Wako). The lysates, adjusted to have the same protein amount, were mixed with NuPAGE LDS sample buffer containing DTT and heated at 95 °C for 5 min. Except for HTT detection, each sample (2 µg total protein/lane) was loaded Perfect NT Gel 7.5–15% gel (DRC, Japan) and run at 150 V for 60–70 min with Tris/glycine/SDS running buffer (BIO-RAD, USA). The proteins were transferred from the gel to Immobilon-P PVDF Membrane (Millipore, USA) with a transfer solution comprising 10% methanol and 1 × Novex Tris-glycine transfer buffer at 25 V for 180–240 min using Criterion blotter (BIO-RAD). […] After washing with TBS-T four times, chemiluminescence signals were detected by Immunostar Zeta (Wako) and LAS-4000 (GE healthcare).

| SMILES | EC1.5× FL-SMN2 (FL-SMN2 mRNA) | Selectivity GALC /FL-SMN2 (GALC mRNA) | EC50 (GALC mRNA) [nM] | GALC enzymatic activity compared to TEC-1 (GALC) | increase in psychosine compared to the control (Hs683 cells) | GALC enzymatic activity (GALC; 3000 nM) | ChAT protein level (ChAT protein) |
| --- | --- | --- | --- | --- | --- | --- | --- |
| CCN1CCC(c2cc(C)c3nc(-c4cc5c(C)nc(C)cn5n4)cc(=O)n3c2)CC1 [SMN-C3, reference compound] | 122.1 (74.5–221.7) nM | 4 | 459 | strongly decreased the activity of GALC | approximately 22 fold | – | – |
| Cc1cn2nc(-c3nc4ccc(N5CCN(C)CC5)cc4c(=O)[nH]3)cc2c(C)n1 [TEC-1, 2-(4,6-dimethylpyrazolo[1,5-a]pyrazin-2-yl)-6-(4-methylpiperazin-1-yl)quinazolin-4(3H)-one] | 49.1 (22.7–109.4) nM | > 61 | > 3000 | – | 1.9 fold | slight decrease | increase the levels of choline acetyltransferase (ChAT) |
